The target in one experiment is T1, human PI3Kα protein (Homo sapiens, UniProt P42336).
T1 construct: purchased Carna Biosciences, Inc; host or cells: baculovirus expression system
Briefly: PI3Kα enzyme assay (ADP-Glo). The format is biochemical. The settings on record: read-out: PI3Kα enzyme inhibitory activity. In a few lines:
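Biotinylated human PI3Kα (baculovirus-expressed, 4.5 nmol/L) pre-incubated 15 min with compound in Tris-HCl pH 7.5, MgCl2, BSA; reaction 60 min at 25° C with 50 μmol/L PIP2 and 100 μmol/L ATP final. ADP quantified by ADP-Glo luminescence; IC50 calculated.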
(ADP-Glo first removes unused ATP, then detects ADP through luciferase.)

The target of experiment [1] is T2, GST fusion human ERK2 protein (Homo sapiens, UniProt P28482).
T2 construct: purchased Carna Biosciences, Inc; host or cells: E. coli expression system
Briefly: ERK2 enzyme assay (2). Type of experiment: biochemical. The settings on record: ERK2 enzyme assay (2); read-out: ERK2 enzyme inhibitory activity (2). In short, it runs like this: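 IC50 values come from mobility-shift measurement of phosphorylated versus unphosphorylated 5-FAM peptide substrate after EDTA quench. Beforehand, compound and 1.25 nmol/L E. coli-expressed GST–human ERK2 stood 15 min at room temperature (pH 7.5), then 1 mmol/L ATP and 4.25 μmol/L substrate (final) were added for 120 min at 25 °C.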

Molecules are shown by their SMILES.

T2 sequence (P28482 whole entry, the tested form may be a part): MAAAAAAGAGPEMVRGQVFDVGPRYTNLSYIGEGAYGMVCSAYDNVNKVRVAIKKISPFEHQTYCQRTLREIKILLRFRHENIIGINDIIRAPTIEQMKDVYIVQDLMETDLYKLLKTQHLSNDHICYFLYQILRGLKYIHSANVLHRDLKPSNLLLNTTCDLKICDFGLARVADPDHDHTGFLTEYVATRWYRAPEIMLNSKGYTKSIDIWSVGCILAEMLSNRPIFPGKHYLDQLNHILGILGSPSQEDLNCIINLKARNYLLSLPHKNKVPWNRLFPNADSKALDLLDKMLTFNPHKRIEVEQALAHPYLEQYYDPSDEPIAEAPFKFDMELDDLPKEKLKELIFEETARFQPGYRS
T1 sequence (P42336 whole entry): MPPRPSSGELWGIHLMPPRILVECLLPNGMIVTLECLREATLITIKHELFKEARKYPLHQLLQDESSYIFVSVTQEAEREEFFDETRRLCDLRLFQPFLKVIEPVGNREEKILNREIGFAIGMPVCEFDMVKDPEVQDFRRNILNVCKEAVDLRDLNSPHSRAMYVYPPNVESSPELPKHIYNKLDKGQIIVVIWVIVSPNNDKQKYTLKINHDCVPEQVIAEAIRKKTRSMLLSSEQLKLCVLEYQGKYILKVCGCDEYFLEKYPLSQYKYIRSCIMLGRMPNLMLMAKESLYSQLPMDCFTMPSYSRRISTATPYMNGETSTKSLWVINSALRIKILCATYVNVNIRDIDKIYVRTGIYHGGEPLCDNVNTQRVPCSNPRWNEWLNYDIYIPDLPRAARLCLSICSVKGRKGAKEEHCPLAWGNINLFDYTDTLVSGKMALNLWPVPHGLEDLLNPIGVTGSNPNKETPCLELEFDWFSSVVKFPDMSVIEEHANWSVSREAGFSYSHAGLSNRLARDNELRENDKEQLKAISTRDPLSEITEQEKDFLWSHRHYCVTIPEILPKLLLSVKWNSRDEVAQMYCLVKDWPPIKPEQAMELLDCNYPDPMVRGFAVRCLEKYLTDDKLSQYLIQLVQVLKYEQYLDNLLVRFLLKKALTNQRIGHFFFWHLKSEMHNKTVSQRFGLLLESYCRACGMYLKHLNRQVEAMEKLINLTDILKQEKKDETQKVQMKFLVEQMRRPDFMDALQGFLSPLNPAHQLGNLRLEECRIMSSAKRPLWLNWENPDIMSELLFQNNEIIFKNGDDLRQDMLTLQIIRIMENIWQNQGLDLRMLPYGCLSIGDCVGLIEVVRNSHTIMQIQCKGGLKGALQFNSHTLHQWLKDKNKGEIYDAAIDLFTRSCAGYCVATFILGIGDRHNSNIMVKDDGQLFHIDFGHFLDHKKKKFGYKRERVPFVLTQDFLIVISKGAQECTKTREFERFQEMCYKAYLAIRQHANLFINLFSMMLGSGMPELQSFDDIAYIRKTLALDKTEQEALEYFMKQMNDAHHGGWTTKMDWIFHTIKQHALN
T1 sequence (P27986 whole entry partner): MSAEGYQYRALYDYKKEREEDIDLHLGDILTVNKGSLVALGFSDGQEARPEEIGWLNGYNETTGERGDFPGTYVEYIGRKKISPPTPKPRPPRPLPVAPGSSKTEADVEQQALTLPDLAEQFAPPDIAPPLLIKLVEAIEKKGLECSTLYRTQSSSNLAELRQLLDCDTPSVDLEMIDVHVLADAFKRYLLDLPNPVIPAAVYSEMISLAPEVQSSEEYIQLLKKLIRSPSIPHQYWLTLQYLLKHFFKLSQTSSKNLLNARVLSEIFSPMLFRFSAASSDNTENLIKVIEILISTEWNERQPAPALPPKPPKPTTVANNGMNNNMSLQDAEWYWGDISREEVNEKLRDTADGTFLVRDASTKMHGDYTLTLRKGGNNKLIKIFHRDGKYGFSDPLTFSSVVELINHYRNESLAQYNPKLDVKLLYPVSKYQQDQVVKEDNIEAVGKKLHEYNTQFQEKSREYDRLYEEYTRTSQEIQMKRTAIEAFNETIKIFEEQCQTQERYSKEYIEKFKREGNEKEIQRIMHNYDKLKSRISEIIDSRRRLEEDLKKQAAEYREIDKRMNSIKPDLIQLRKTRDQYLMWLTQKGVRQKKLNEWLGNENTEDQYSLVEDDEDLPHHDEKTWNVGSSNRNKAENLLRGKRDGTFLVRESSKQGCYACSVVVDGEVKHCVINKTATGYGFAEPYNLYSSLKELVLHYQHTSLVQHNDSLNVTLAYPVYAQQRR

Turning to `Cn1cc(-c2cnc3ccc(Nc4cc(C5CC5)cnn4)nc3c2)cn1` [Example 0564], the IC50 (at human PI3Kα protein; in experiment [1]) was under 1000 nM each time.
Regarding `Cc1nn(C)cc1-c1cnc2ccc(Nc3cc(C4CC4)cnn3)nc2c1` [Example 0565], the IC50 (at human PI3Kα protein; in experiment [1]) was under 1000 nM throughout.
`CC(C)c1cnnc(Nc2ccc3ncc(-c4cnn(C[C@H]5CCC(=O)N5)c4)cc3n2)c1` [Example 0566]: the IC50 (on human PI3Kα protein; in experiment [1]) was under 1000 nM throughout.
Take `CC(C)c1cnnc(Nc2ccc3ncc(-c4cnn(C[C@H]5CCC(=O)N5C)c4)cc3n2)c1` [Example 0568]: the IC50 (at human PI3Kα protein; in experiment [1]) was under 1000 nM each time.
`CCC(C)c1cnnc(Nc2ccc3ncc(-c4cnn(C)c4)cc3n2)c1` (stereo not shown) [Example 0569]: the IC50 (on human PI3Kα protein; in experiment [1]) was under 1000 nM each time.
With `CC(C)Cc1cnnc(Nc2ccc3ncc(-c4cnn(C)c4)cc3n2)c1` [Example 0571], the IC50 (at human PI3Kα protein; in experiment [1]) was under 1000 nM in each case.
Consider `Cc1nc(C)c(-c2cnc3ccc(Nc4cc(C(C)C)cnn4)nc3c2)s1` [Example 0574, 7-(2,4-dimethylthiazol-5-yl)-N-(5-isopropylpyridazin-3-yl)-1,5-naphthyridine-2-amine], for which the IC50 on human PI3Kα protein was 1000 to 10000 nM; in experiment [1], under 1000 nM.
Regarding `CC(C)c1cnnc(Nc2ccc3ncc(-c4cnn(C)c4-c4cccnc4)cc3n2)c1` [Example 0575], the IC50 (at human PI3Kα protein; in experiment [1]) was under 1000 nM each time.
For the compound `Cn1cc(-c2cnc3ccc(Nc4cc(C5CCC5)cnn4)nc3c2)cn1` [Example 0577, N-(5-cyclobutylpyridazin-3-yl)-7-(1-methyl-1H-pyrazol-4-yl)-1,5-naphthyridine-2-amine], the IC50 (at human PI3Kα protein; in experiment [1]) was under 1000 nM throughout.
Consider `CC(C)c1cnnc(Nc2ccc3ncc(-c4scnc4-c4cccnc4)cc3n2)c1` [Example 0578], for which the IC50 (on human PI3Kα protein; in experiment [1]) was under 1000 nM throughout.
Regarding `CC(C)c1cnnc(Nc2ccc3ncc(-c4cn(C)nc4-c4ccccc4)cc3n2)c1` [Example 0579], the IC50 (at human PI3Kα protein; in experiment [1]) was under 1000 nM each time.
As to `CC(C)c1cnnc(Nc2ccc3ncc(C4=CCOCC4)cc3n2)c1` [Example 0580], the IC50 (at human PI3Kα protein; in experiment [1]) was under 1000 nM throughout.
`CC(C)c1cnnc(Nc2ccc3ncc(-c4cnn(CC5CC5)c4)cc3n2)c1` [Example 0581]: the IC50 (at human PI3Kα protein; in experiment [1]) was under 1000 nM each time.
On to `CC(C)c1cnnc(Nc2ccc3ncc(-c4cn(C)nc4-c4cnn(C)c4)cc3n2)c1` [Example 0582], for which the IC50 (on human PI3Kα protein; in experiment [1]) was under 1000 nM throughout.
As to `COc1ccc(-c2nn(C)cc2-c2cnc3ccc(Nc4cc(C(C)C)cnn4)nc3c2)cc1` [Example 0584], the IC50 (on human PI3Kα protein; in experiment [1]) was under 1000 nM in each case.
Consider `CCC(CC)c1cnnc(Nc2ccc3ncc(-c4cnn(C)c4)cc3n2)c1` [Example 0585], for which the IC50 (on human PI3Kα protein; in experiment [1]) was under 1000 nM each time.
In the case of `Cn1cc(-c2cnc3ccc(Nc4cc(CC5CCCCC5)cnn4)nc3c2)cn1` [Example 0586], the IC50 (at human PI3Kα protein; in experiment [1]) was under 1000 nM throughout.
Turning to `Cc1ncc(-c2nn(C)cc2-c2cnc3ccc(Nc4cc(C(C)C)cnn4)nc3c2)s1` [Example 0587], the IC50 (at human PI3Kα protein; in experiment [1]) was under 1000 nM in each case.
With `COc1ccc(-c2cnc3ccc(Nc4cc(C(C)C)cnn4)nc3c2)cn1` [Example 0590], the IC50 at human PI3Kα protein was 1000 to 10000 nM; in experiment [1] it was under 1000 nM.
The corresponding values for `COc1ncccc1-c1cnc2ccc(Nc3cc(C(C)C)cnn3)nc2c1` [Example 0591] are 1000 to 10000 nM and under 1000 nM.
Taken in the same sequence, the figures for `CC(C)c1cnnc(Nc2ccc3ncc(-c4ccc(O)nc4)cc3n2)c1` [Example 0592] were under 1000 nM and under 1000 nM.
`CC(C)c1cnnc(Nc2ccc3ncc(-c4cccnc4O)cc3n2)c1` [Example 0593]: the IC50 on human PI3Kα protein is 1000 to 10000 nM; in experiment [1] it was under 1000 nM.
Taken in the same sequence, the figures for `CC(C)c1cnnc(Nc2ccc3ncc(-c4ccc(=O)n(C)c4)cc3n2)c1` [Example 0594, 5-(6-((5-isopropylpyridazin-3-yl)amino)-1,5-naphthyridin-3-yl)-1-methylpyridin-2(1H)-one] were under 1000 nM and under 1000 nM.
On to `CC(C)c1cnnc(Nc2ccc3ncc(-c4cccn(C)c4=O)cc3n2)c1` [Example 0595, 3-(6-((5-Isopropylpyridazin-3-yl)amino)-1,5-naphthyridin-3-yl)-1-methylpyridin-2(1H)-one], for which the IC50 was 1000 to 10000 nM at human PI3Kα protein and under 1000 nM in experiment [1].
As for `CCn1cc(-c2cnc3ccc(Nc4cc(C(C)C)cnn4)nc3c2)ccc1=O` [Example 0596, 1-ethyl-5-(6-((5-isopropylpyridazin-3-yl)amino)-1,5-naphthyridin-3-yl)pyridin-2(1H)-one], the IC50 (at human PI3Kα protein; in experiment [1]) was under 1000 nM each time.
`Cc1ccc(-c2cnc3ccc(Nc4cc(C(C)C)cnn4)nc3c2)cn1` [Example 0597]: the IC50 is 1000 to 10000 nM on human PI3Kα protein and under 1000 nM in experiment [1].
Taken in the same sequence, the figures for `Cc1cncc(-c2cnc3ccc(Nc4cc(C(C)C)cnn4)nc3c2)c1` [Example 0598] were 1000 to 10000 nM and under 1000 nM.
Taken in the same sequence, the figures for `Cc1ncccc1-c1cnc2ccc(Nc3cc(C(C)C)cnn3)nc2c1` [Example 0599] were 1000 to 10000 nM and under 1000 nM.
The corresponding values for `Cc1ccncc1-c1cnc2ccc(Nc3cc(C(C)C)cnn3)nc2c1` [Example 0600] are 1000 to 10000 nM and under 1000 nM.
Consider `c1cnnc(Nc2ccc3ncc(-c4cnn(CCCN5CCOCC5)c4)cc3n2)c1` [Example 0601, 7-(1-(3-Morpholinopropyl)-1H-pyrazol-4-yl)-N-(pyridazin-3-yl)-1,5-naphthyridine-2-amine], for which the IC50 on human PI3Kα protein was 1000 to 10000 nM; in experiment [1] it was under 1000 nM.
With `CC(C)c1cnnc(Nc2ccc3ncc(-c4ccnc(N)c4)cc3n2)c1` [Example 0602, 7-(2-aminopyridin-4-yl)-N-(5-isopropylpyridazin-3-yl)-1,5-naphthyridine-2-amine], the IC50 (at human PI3Kα protein; in experiment [1]) was under 1000 nM each time.
`CC(C)c1cnnc(Nc2ccc3ncc(-c4ccn(C)c(=O)c4)cc3n2)c1` [Example 0603]: the IC50 (at human PI3Kα protein; in experiment [1]) was under 1000 nM each time.
Consider `CC(C)c1cnnc(Nc2ccc3ncc(-c4cncnc4)cc3n2)c1` [Example 0604], for which the IC50 was 10000 to 50000 nM at human PI3Kα protein and under 1000 nM in experiment [1].
Taken in the same sequence, the figures for `CC(C)c1cnnc(Nc2ccc3ncc(-c4ncccn4)cc3n2)c1` [Example 0605] were under 1000 nM and under 1000 nM.
Regarding `CC(C)c1cnnc(Nc2ccc3ncc(-c4cnccn4)cc3n2)c1` [Example 0606], the results for the IC50 (at human PI3Kα protein; in experiment [1]) were 1000 to 10000 nM and under 1000 nM, respectively.
As for `CC(C)c1cnnc(Nc2ccc3ncc(-c4cnn(CCCN5CCOCC5C)c4)cc3n2)c1` (stereo not shown) [Example 0607, N-(5-isopropylpyridazin-3-yl)-7-(1-(3-(3-methylmorpholino)propyl)-1H-pyrazol-4-yl)-1,5-naphthyridine-2-amine], the IC50 (on human PI3Kα protein; in experiment [1]) was under 1000 nM each time.
For `CC1CN(CCCn2cc(-c3cnc4ccc(Nc5cc(C(C)C)cnn5)nc4c3)cn2)CCO1` (stereo not shown) [Example 0608], the IC50 (on human PI3Kα protein; in experiment [1]) was under 1000 nM throughout.
As for `CC(C)c1cnnc(Nc2ccc3ncc(-c4cnn(CCN5CCCCC5)c4)cc3n2)c1` [Example 0609, N-(5-isopropylpyridazin-3-yl)-7-(1-(2-(piperidin-1-yl)ethyl)-1H-pyrazol-4-yl)-1,5-naphthyridine-2-amine], the IC50 (on human PI3Kα protein; in experiment [1]) was under 1000 nM each time.
Regarding `C=Cn1cc(-c2cnc3ccc(Nc4cc(C(C)C)cnn4)nc3c2)cn1` [Example 0610, N-(5-isopropylpyridazin-3-yl)-7-(1-vinyl-1H-pyrazol-4-yl)-1,5-naphthyridine-2-amine], the IC50 (at human PI3Kα protein; in experiment [1]) was under 1000 nM throughout.
Turning to `CC(C)c1cnnc(Nc2ccc3ncc(-c4cnn(CCN5CCC5)c4)cc3n2)c1` [Example 0611], the IC50 (on human PI3Kα protein; in experiment [1]) was under 1000 nM throughout.
As to `CC(C)c1cnnc(Nc2ccc3ncc(-c4cnn(CCN5CC(O)C5)c4)cc3n2)c1` [Example 0612], the IC50 (at human PI3Kα protein; in experiment [1]) was under 1000 nM in each case.
In the case of `CC(C)c1cnnc(Nc2ccc3ncc(-c4cnn(CCN5C[C@H](C)O[C@@H](C)C5)c4)cc3n2)c1` [Example 0616, 7-(1-(2-((2S,6S)-2,6-dimethylmorpholino)ethyl)-1H-pyrazol-4-yl)-N-(5-isopropylpyridazin-3-yl)-1,5-naphthyridine-2-amine], the IC50 (at human PI3Kα protein; in experiment [1]) was under 1000 nM throughout.
Take `CC(C)c1cnnc(Nc2ccc3ncc(-c4cnn(CCN5C[C@@H](C)O[C@@H](C)C5)c4)cc3n2)c1` [Example 0617, 7-(1-(2-((2S,6R)-2,6-dimethylmorpholino)ethyl)-1H-pyrazol-4-yl)-N-(5-isopropylpyridazin-3-yl)-1,5-naphthyridine-2-amine]: the IC50 (at human PI3Kα protein; in experiment [1]) was under 1000 nM each time.
In the case of `CC(C)c1cnnc(Nc2ccc3ncc(-c4ccc(=O)n(CCCN5CCOCC5)c4)cc3n2)c1` [Example 0618], the IC50 (at human PI3Kα protein; in experiment [1]) was under 1000 nM throughout.

Source of the values: US9783536B2, “Nitrogen-containing heterocyclic compound or salt thereof” (FUJIFILM Corporation, priority 2013, dated 2017).
